Counter-ions that a name gives are not always drawn.
Tests used:
[1] = molecular target: T1, rhCRTh2 (Homo sapiens, UniProt Q9Y5Y4); test: Ligand Binding Assay ([3H]PGD2 SPA, HEK cell membranes); settings: [3H]PGD2 displacement, HEK membranes expressing rhCRTh2/Gα16, SPA beads, 2 hours room temperature
T1 construct: expressed in transfected cells; host or cells: HEK cells (membrane preparation)
T1 sequence (Q9Y5Y4 1-395): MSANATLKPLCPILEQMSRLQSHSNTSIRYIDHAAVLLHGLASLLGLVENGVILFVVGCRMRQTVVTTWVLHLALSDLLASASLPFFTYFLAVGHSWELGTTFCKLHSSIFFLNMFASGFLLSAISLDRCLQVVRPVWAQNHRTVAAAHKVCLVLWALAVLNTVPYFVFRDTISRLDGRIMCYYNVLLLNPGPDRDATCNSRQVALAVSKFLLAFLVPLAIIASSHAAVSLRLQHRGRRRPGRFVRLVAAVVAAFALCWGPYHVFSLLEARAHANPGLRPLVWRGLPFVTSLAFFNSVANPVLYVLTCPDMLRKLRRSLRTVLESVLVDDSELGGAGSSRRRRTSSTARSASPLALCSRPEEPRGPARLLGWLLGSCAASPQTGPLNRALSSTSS
Procedure: • 1) Gassmann, Berge, T. J., Gilbert, D. P., Berkeley, W. C., JACS, 96, 5495-5508, (1974). Pharmacological Data Ligand Binding Assay
[^3H]PGD2 was purchased from Perkin Elmer Life Sciences with a specific activity of 100-210 Ci/mmol. All other chemicals were of analytical grade.
HEK cells expressing rhCRTh2/Gα16 were routinely maintained in DMEM containing 10% Foetal Bovine Serum (HyClone), 1 mg/ml geneticin, 2 mM L-glutamine and 1% non-essential amino acids. For the preparation of membranes, the adherent transfected HEK cells were grown to confluence in two layer tissue culture factories (Fisher, catalogue number TKT-170-070E). Maximal levels of receptor expression were induced by addition of […] sodium butyrate for the last 18 hours of culture. The adherent cells were washed once with phosphate buffered saline (PBS, 50 ml per cell factory) and detached by the addition of 50 ml per cell factory of ice-cold membrane homogenisation buffer [20 mM HEPES (pH 7.4), 0.1 mM dithiothreitol, 1 mM EDTA, 0.1 mM phenyl methyl sulphonyl fluoride and 100 μg/ml bacitracin]. […] The final pellet was re-suspended in 4 ml of membrane homogenisation buffer per cell factory used and the protein content determined. […]
All assays were performed in Corning clear bottomed, white 96-well NBS plates (Fisher). […] (The optimum coating concentrations were determined for each batch of membranes) The beads were pelleted by centrifugation (800×g for 7 minutes at 4° C.), washed once with assay buffer (50 mM HEPES pH 7.4 containing 5 mM magnesium chloride) and finally re-suspended in assay buffer at a bead concentration of 10 mg/ml.
Each assay contained 20 μl of 6.25 nM [^3H]PGD2, 20 μl membrane saturated SPA beads both in assay buffer and 10 μl of compound solution or 13,14-dihydro-15-keto prostaglandin D2 (DK-PGD2, for determination of non-specific binding, Cayman chemical company). […] The assay plate was incubated at room temperature for 2 hours and counted on a Wallac Microbeta liquid scintillation counter (1 minute per well).

IC50 [1]	melting point	Structure (SMILES)
20 nM	–	Cc1ccc2c(c1)c(-c1ccnc3ccccc13)c(C)n2CC(=O)O [Example 14, 2,5-dimethyl-3-(4-quinolinyl)-1H-indole-1-acetic acid, sodium salt]
7.08 nM	–	Cc1c(-c2nsc3ccccc23)c2cc(F)ccc2n1CC(=O)O [Example 36, 3-(1,2-benzisothiazol-3-yl)-5-fluoro-2-methyl-1H-indole-1-acetic acid]
–	195 to 198 °C	Cc1c(-c2ccnc3cc(Cl)ccc23)c2cc(NS(C)(=O)=O)ccc2n1CC(=O)O [Example 46, 3-(7-Chloro-4-quinolinyl)-2-methyl-5-[(methylsulfonyl)amino]-1H-indole-1-acetic acid]
53.7 nM	–	O=C(O)Cn1c(CO)c(-c2ccnc3cc(Cl)ccc23)c2cc(Cl)ccc21 [Example 55, 5-Chloro-3-(7-chloro-4-quinolinyl)-2-(hydroxymethyl)-1H-indole-1-acetic acid]

— patent publication US8093278B2, “Substituted indoles” (AstraZeneca AB, priority 2002, dated 2012)
